Measured values taken from the NIST ThermoML archive (doi:10.1016/j.jct.2011.01.014).
± gives the expanded uncertainty stated by the source.

Experiment: xn = mol fraction of the nth substance listed
Settings: 101 kPa, Liquid; for mass density: Vibrating tube method; for speed of sound: sound velocity cell

CC(=O)[O-].[NH3+]CCO [2-hydroxyethylammonium acetate] + CCO
Settings	mass density, 288.15 K [kg/m3]	mass density, 290.65 K [kg/m3]	mass density, 293.15 K [kg/m3]	mass density, 295.65 K [kg/m3]	speed of sound, 288.15 K [m/s]	speed of sound, 290.65 K [m/s]	speed of sound, 293.15 K [m/s]	speed of sound, 295.65 K [m/s]
x1 = 0.0497	830.092 ± 0.7	828.024 ± 0.7	825.955 ± 0.7	823.881 ± 0.7	1219.7 ± 1.4	1211.3 ± 1.4	1203 ± 1.4	1194.7 ± 1.4
x1 = 0.101	862.917 ± 0.59	860.918 ± 0.59	858.918 ± 0.59	856.913 ± 0.59	1257.7 ± 1.4	1249.6 ± 1.4	1241.5 ± 1.4	1233.5 ± 1.4
x1 = 0.201	917.271 ± 0.55	915.381 ± 0.55	913.49 ± 0.55	911.596 ± 0.55	1327 ± 1.6	1319.3 ± 1.6	1311.7 ± 1.6	1304 ± 1.6
x1 = 0.3009	964.134 ± 0.53	962.336 ± 0.53	960.535 ± 0.53	958.737 ± 0.53	1410 ± 1.7	1402.9 ± 1.7	1395.7 ± 1.7	1388.5 ± 1.7
x1 = 0.4057	1005.85 ± 0.59	1004.14 ± 0.59	1002.43 ± 0.59	1000.73 ± 0.59	1470.2 ± 1.9	1463.2 ± 1.9	1456.2 ± 1.9	1449.2 ± 1.9
x1 = 0.4946	1036.29 ± 0.73	1034.64 ± 0.73	1033 ± 0.73	1031.36 ± 0.72	1529.9 ± 2.1	1523 ± 2.1	1516.3 ± 2.1	1509.6 ± 2.1
x1 = 0.603	1068.79 ± 0.99	1067.23 ± 0.99	1065.67 ± 0.99	1064.1 ± 0.98	1601.6 ± 2.3	1594.9 ± 2.3	1588.4 ± 2.3	–
x1 = 0.6765	1088.47 ± 1.2	1086.9 ± 1.2	1085.33 ± 1.2	1083.81 ± 1.2	1646.3 ± 2.5	1639.6 ± 2.5	1633.2 ± 2.4	–
x1 = 0.7918	1116.27 ± 1.6	1114.76 ± 1.6	1113.26 ± 1.6	1111.76 ± 1.6	1707.9 ± 2.7	1700.5 ± 2.7	1693.3 ± 2.7	–
x1 = 0.8825	1135.66 ± 2	1134.02 ± 2	1132.52 ± 2	1131.06 ± 2	1756.7 ± 2.9	1749.4 ± 2.9	1741.7 ± 2.9	–
x1 = 0.9539	1148.76 ± 2.3	1147.23 ± 2.3	1145.67 ± 2.3	1144.09 ± 2.3	1806.7 ± 3.1	1796 ± 3.1	1786.6 ± 3.1	–
x1 = 1	1154.7 ± 2.6	1153.28 ± 2.6	1151.87 ± 2.5	1150.45 ± 2.5	1817.2 ± 3.2	1810 ± 3.2	1803.2 ± 3.2	–
